Measured values published in paper PMC11241255 (International Journal of Molecular Sciences, 2024).
Several values for one entry are separate records, joined by “and”; a condition that tells them apart may be missing. Equal values may be shown once. Read-outs that look alike come from different tables or passages of the source.

What was measured:
[1] = DPPH radical scavenging assay; conditions: positive control at 10 μg/mL
Procedure: DPPH radical scavenging capacity of the extracts and phytocompounds at 1 mg/mL was measured with slight modification. The absorbance was monitored at 515 nm (Multimode reader, Synergy-H1 BioTek, Agilent, Santa Clara, CA, USA) using ascorbic acid (0.1–10 μg/mL) as a standard. Radical scavenging activity (RSA) was calculated as:% RSA = (Ab − Ae/Ab) × 100 where Ab = absorbance of the blank and Ae = absorbance of the extract.

[2] = tested on: SH-SY5Y cells; assay: Mitochondrial membrane potential (ΔΨm) assay (TMRE); type: cell-based, Human; conditions: 12 h pre-treatment, 200 μM H2O2 2 h
Procedure: (§1) Human neuroblastoma SH-SY5Y cells (ATCC CRL-2266, Manassas, VA, USA) were maintained in Dulbecco’s modified Eagle’s medium (DMEM, Gibco) supplemented with 10% fetal bovine serum (FBS), 1% kanamycin, and 1% penicillin (Thermo Fisher Scientific, Waltham, MA, USA) at 37 °C with 5% CO2, and a 95% humidified atmosphere in the incubator. The experiments were executed at 80–90% cell confluency.
The mitochondrial membrane potential was measured using the tetramethylrhodamine, methyl ester (TMRE) staining method. The cells (1 × 10^4 cells/well) were seeded in a 96-well sterile plate; after which, they were pre-treated with the extract for 12 h. The extracts and phytocompounds were removed, followed by a 2 h treatment with H2O2 (200 μM). A 1 μM amount of TMRE was added to the cells and incubated for 1 h at 37 °C. The fluorescence was assessed (Ex 549 nm, Ems 575 nm) using a microplate reader (Synergy-H1 BioTek, Agilent, USA). The ΔΨm was calculated as a percentage of the untreated control cells (100%) in triplicate measurements.

[3] = tested on: SH-SY5Y cell lysate; assay: Glutathione (GSH, GSSG) in cell lysate; type: cell-based, Human; conditions: 10 μg/mL; 24 h pre-treatment, 6 h H2O2 100 μM
Procedure: as §1
(§2) The cells (5 × 10^4 cells/well) were seeded in a 6-well sterile plate and incubated for 18–24 h. After stabilization, cells were pre-treated with the extracts and phytocompounds for 24 h before 6 h incubation with H2O2 (100 μM). The culture media was removed, and the cells were washed with cold PBS (1X). The cells were placed on ice and incubated with pre-chilled RIPA buffer for 10 min. Transfer the lysate in microfuge tubes and centrifuge (Labogene 1730R, BMS, Paju-si, Republic of Korea) for 10 min at 20,000× g, 4 °C. The supernatant was collected and stored at −80 °C.
The concentrations of GSH (reduced) and GSSG (oxidized) in the lysate were measured fluorometrically using a previously described and the fluorescence was recorded at 350/420 (Ex/Ems) in a microplate reader (Synergy-H1 BioTek, Agilent, Santa Clara, CA, USA).

[4] = tested on: SH-SY5Y neuroblastoma cell line; assay: Cell viability / cytotoxicity assay (WST-8); type: cell-based, Human; conditions: 24 h treatment; 1, 10, 30 µg/mL
Procedure: as §1
The cells were seeded (1 × 10^4 cells/well) in 96-well sterile plates and pre-treated with various extract concentrations (1, 10, 30 µg/mL) for 24 h. The extracts and phytocompounds were removed and incubated for 2 h with 10% WST-8 reagent (Roche, Grenzach-Wyhlen, Germany) as described previously. The absorbance was determined at 450 nm in a multi-plate reader (Synergy-H1 BioTek, Agilent, USA). The percent cytotoxicity was calculated as:Cytotoxicity % = (Ac − At)/(Ac) × 100 where Ac = absorbance of the control cells, At = absorbance of the treated cells.
The plot of percent cytotoxicity versus sample concentration was used to calculate the extract concentration that killed 50% of the cells (IC50).

[5] = molecular target: T1, Acetylcholinesterase (Electrophorus electricus, Type VI-S) (Electrophorus electricus, UniProt O42275); assay: biochemical; conditions: for IC50: read-out: AChE IC50 (converted); for Type of Inhibition of AChE: Lineweaver–Burk plot, 100 and 200 μg/mL; for Vmax of AChE in presence of inhibitor: no inhibitor 2.975
T1 construct: purchased Sigma-Aldrich
T1 sequence (O42275 24-633): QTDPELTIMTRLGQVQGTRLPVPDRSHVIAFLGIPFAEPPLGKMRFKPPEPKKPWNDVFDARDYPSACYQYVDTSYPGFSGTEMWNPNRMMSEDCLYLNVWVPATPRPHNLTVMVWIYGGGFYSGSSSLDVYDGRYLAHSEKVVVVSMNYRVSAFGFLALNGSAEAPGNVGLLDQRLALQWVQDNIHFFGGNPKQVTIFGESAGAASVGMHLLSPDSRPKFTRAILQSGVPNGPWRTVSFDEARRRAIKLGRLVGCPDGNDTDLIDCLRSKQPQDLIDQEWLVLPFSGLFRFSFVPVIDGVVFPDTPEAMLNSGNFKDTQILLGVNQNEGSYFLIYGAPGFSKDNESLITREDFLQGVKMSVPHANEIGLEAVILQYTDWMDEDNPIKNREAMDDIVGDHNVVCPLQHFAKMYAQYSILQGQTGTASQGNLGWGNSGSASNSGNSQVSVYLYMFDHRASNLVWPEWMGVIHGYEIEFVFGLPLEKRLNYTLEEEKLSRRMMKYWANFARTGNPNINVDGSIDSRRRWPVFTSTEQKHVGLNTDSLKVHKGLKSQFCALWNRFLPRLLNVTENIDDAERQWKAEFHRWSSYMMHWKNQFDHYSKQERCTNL
Procedure: The AChE activity was examined by slight modifications [23] in Ellman’s method [76]. The extracts and phytocompounds were incubated for 15 min with AChE and 10 mM ATCC at 37 °C. The reaction was stopped by DTNB (15 mM), and the absorbance was measured at 412 nm (Multi-mode plate reader, Synergy-H1 BioTek, Agilent, USA). […] The percent inhibition was calculated as:Percent Inhibition (I%) = [(Ao − Ac) − (Bi − Bc)]/(Ao − Ac) × 100 where Ao is the absorbance without inhibitor; Ac is the negative control without inhibitor; Bi is the absorbance with inhibitor; and Bc is the negative control with inhibitor. The IC50 values were calculated using GraphPad Prism 10. Lineweaver–Burk plot was used to prepare the inhibition curves (with and without extract/phytocompound) using GraphPad Prism 10. The kinetic parameters were calculated from a non-linear fit (Michaelis–Menten equation) in GraphPad Prism 10.
Statistical analysis was established by a one-way ANOVA followed by Dunnett’s post hoc test. Data are registered as the mean ± SEM of three sets of experiments. […] The IC50 values were determined using non-linear regression. The Vmax and Km were calculated from a Michaelis–Menten plot drawn using a non-linear plot (GraphPad Prism 10). Lineweaver–Burk plots were drawn using linear regression analysis (GraphPad Prism 10). The Ki values were calculated from the formula IC50 = Ki (1 + [S]/Km).

[6] = tested on: SH-SY5Y cells lysate; assay: Malondialdehyde (MDA) in cell lysate (TBA:TCA); type: cell-based, Human; conditions: 24 h pre-treatment, 6 h H2O2 100 μM
Procedure: as §1, §2
MDA levels were measured using TBA: TCA reagent as described previously. In the reaction, MDA reacts with two molecules of thiobarbituric acid (TBA) to give a pink pigment that absorbs at 532 nm. The standard curve of MDA (1–100 μM) was used to calculate lipid peroxidation in the lysate.

[7] = Ferric reducing antioxidant potential (FRAP) assay; conditions: 1 mg/mL
Procedure: FRAP assay was used to assess the […] of the extracts and phytocompounds with slight modification in a previously reported method. For the assay, the extract (1 mg/mL) was incubated with 200 μL of FRAP reagent, and the reduction of ferric tripyridyltriazine was monitored at 593 nm (Multimode reader, Synergy-H1 BioTek, Agilent, USA). Ascorbic acid (2 μg/mL) was used as a positive control. FRAP values of the extracts and phytocompounds were calculated from the standard curve of FeSO4 (15–250 μM) and expressed as μM Fe^2+/g.

[8] = tested on: H2O2-induced ROS production in SH-SY5Y cells; assay: Intracellular ROS measurement (H2DCFDA); type: cell-based, Human; conditions: 12 h pre-treatment, H2O2 100 µM 2 h, H2O2 alone 156.96 ± 5.07%
Procedure: as §1
The cells (1 × 10^4 cells/well) were seeded in a 96-well sterile plate, after which they were pre-treated with the extract for 12 h. […] The fluorescence intensity (Ex 495 nm, Ems 520 nm) was measured by a microplate reader (Synergy-H1 BioTek, Agilent, USA). The ROS was calculated as a percentage of the untreated control cells (100%) in triplicate measurements.

[9] = molecular target: T2, Aβ1–42 (Homo sapiens, UniProt P05067); assay: Anti-Aβ1–42 oligomerization, multimeric detection system (MDS); type: biochemical; conditions: for Aβ oligomerization reduction (relative amount of Aβ oligomers): vs negative control (Buffer + Aβ)
T2 construct: Aβ1–42 for MDS (GenicBio Inc., Shanghai, China); purchased GenicBio Inc
T2 sequence (P05067 672-713): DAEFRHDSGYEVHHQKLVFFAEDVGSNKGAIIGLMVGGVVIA
Procedure: The anti-Aβ1–42 oligomerization and fibrilization activity of the extracts/bioactives were measured by Multiple Detection System (MDS) and ThT assay, respectively. Briefly, the extracts and phytocompounds were incubated with Aβ1–42 at RT for different time points (0 h, 2 h, and 4 h). The samples were incubated on an anti-β-amyloid pre-coated plate for 1 h at RT. An HRP-conjugated W0–2 monoclonal antibody was added, and the plate was kept at RT for 30 min. Later, TMB was added, and the plate was incubated for 15 min at RT. The absorbance was read at 450 nm using a microplate reader (Victor3, PerkinElmer, Shelton, CT, USA)

[10] = tested on: H2O2-induced neuroblastoma SH-SY5Y cells; assay: Neuroprotection assay against H2O2-induced oxidative stress (WST-8); type: cell-based, Human
Procedure: as §1
The neuroprotective effect of extracts and phytocompounds on H2O2-induced oxidative stress in SH-SY5Y by a previously described method. The cells (1 × 10^4 cells/well) were seeded in a 96-well sterile plate. After stabilization, the cells were pre-treated with the extracts and phytocompounds for 24 h. The extracts and phytocompounds were removed and treated with H2O2 (100 μM) for 6 h. A solvent control, H2O2 alone, and extract alone treatments were also included. After incubation, the % cell viability was measured using WST-8 reagent in triplicate experiments.

[11] = molecular target: T2, Aβ1–42; assay: Anti-Aβ1–42 fibrilization, ThT assay; type: biochemical; conditions: for Aβ fibrilization inhibition (ThT): samples 500 μg/mL, 37 °C 24 h
Procedure: The anti-Aβ1–42 fibrilization activity of the extracts/bioactives was monitored using a ThT assay. The samples were incubated in the presence/absence of Aβ1–42 at 37 °C for 24 h. The samples were incubated with 100 μM ThT at 37 °C for 15 min. The fluorescence was monitored at Ex 450 nm/Ems 490 nm (Synergy-H1 BioTek, Agilent, Santa Clara, CA, USA). For the control, phenol red (50 μM) was used. The Aβ1–42 aggregation inhibition was calculated as follows:Percent Inhibition (%) = [(1 − Fi/Fc) × 100] where Fi and Fc are the fluorescence intensity with and without the inhibitors, respectively.

[12] = tested on: AChE; conditions: cited from earlier work
[13] = cited from earlier work
[14] = ABTS radical scavenging assay; conditions: positive control at 10 μg/mL
[15] = mean of three experiments ± SEM

Compound: O=C1O[C@H]([C@@H](O)CO)C(O)=C1O [Ascorbic acid, ascorbic acid]
- DPPH percent radical scavenging activity [1]: 85.43 ± 1.02%

Compound: C=C(C)[C@H]1CC[C@H](C)C(=O)C1 [DHC, cyclohexanone,2-methyl-5-(1-methylethenyl)-]
- MMP (% ΔΨm vs untreated cells) ([2]; 0.1 µg/mL): 74.94 ± 1.20%
- MMP (% ΔΨm vs untreated cells) ([2]; 1 µg/mL): 79.26 ± 0.56%
- MMP (% ΔΨm vs untreated cells) ([2]; 10 µg/mL): 85.21 ± 0.19%
- MMP (% ΔΨm vs untreated cells) ([2]; 30 µg/mL): 86.91 ± 5.47%
- GSSG levels [3]: substantial reduction
- Cytotoxicity (cell viability) in SH-SY5Y [4]: No significant difference
- IC50 [5, 15]: > 7870 µM and 7870 µM
- IC50 ([5]; stated as bound): > 6570 µM
- MDA level ([6]; 0.1 µg/mL): 1.79 µM
- MDA level ([6]; 1 µg/mL): 1.60 µM
- MDA level ([6]; 10 μg/mL): 1.45 µM
- FRAP value [7]: 45.22 ± 0.72 µM Fe^2+/g
- ROS level (% of untreated cells) ([8]; 10 µg/mL): 107.37 ± 8.26%
- ROS level (% of untreated cells) ([8]; 30 µg/mL): 96.73 ± 9.11%
- Aβ oligomerization reduction (relative amount of Aβ oligomers) ([9]; 2 h incubation): non-significant
- percent Aβ oligomerization inhibition ([9]; MDS, Figure 3B, mean ± SEM n = 3): 26.62 ± 8.62%
- cell viability change vs H2O2 control ([10]; all concentrations (0.1–30 µg/mL)): non-significantly increased
- Aβ fibrilization inhibition (ThT) [11]: 26.6% and 33.44 ± 3.43%
- AChE inhibition ([12]; at 1 mg/mL): 31.1%

Compound: C=CCc1cc(OC)c2c(c1OC)OCO2 [apiole]
- MMP (% ΔΨm vs untreated cells) ([2]; 0.1 µg/mL): 71.53 ± 0.37%
- MMP (% ΔΨm vs untreated cells) ([2]; 1–30 µg/mL): 75 to 77%
- Cytotoxicity (cell viability) in SH-SY5Y [4]: No significant difference
- Ki ([5]; Ki): 1720 µM
- Ki ([5]; Ki (inhibitor constant), AChE): 1720 µM and 1710 µM
- Type of Inhibition of AChE [5]: competitive inhibition
- Type of Inhibition of AChE ([5]; listed as Apiole): Competitive
- Vmax of AChE in presence of inhibitor ([5]; inhibitor 100 μg/mL): 3.551 µmol/min/mg
- Vmax of AChE in presence of inhibitor ([5]; inhibitor 200 μg/mL): 3.712 µmol/min/mg
- IC50 [5, 15]: 1750 µM
- IC50 ([5]; molar equivalent of the μg/mL value): 1740 µM
- MDA level ([6]; 0.1 µg/mL): 1.94 µM
- MDA level ([6]; 1 and 10 µg/mL): ~ 1.38 µM
- BBB permeability [13]: lacks significant BBB permeability
- FRAP value [7]: 42.41 ± 3.54 µM Fe^2+/g
- ROS level (% of untreated cells) ([8]; 10 µg/mL): 113.63 ± 6.25%
- ROS level (% of untreated cells) ([8]; 30 µg/mL): 102.92 ± 9.11%
- Aβ oligomerization reduction (relative amount of Aβ oligomers) ([9]; 2 h incubation): statistically significant
- Aβ oligomerization reduction (relative amount of Aβ oligomers) ([9]; 4 h incubation): statistically significant
- % cell viability, H2O2-induced SH-SY5Y ([10]; 1–30 µg/mL, 12 h pre-treatment, 1 h H2O2 100 µM): ~ 75%
- Aβ fibrilization inhibition (ThT) [11]: 41.85 ± 1.73%

Compound: COc1ccc2c3c1O[C@H]1C[C@@H](O)C=C[C@@]31CCN(C)C2 [galantamine, reference compound]
- AChE IC50 ([12]; previously reported value, no reference given): 4.31 µg/mL

Compound: O=S1(=O)OC(c2ccc(O)cc2)(c2ccc(O)cc2)c2ccccc21 [phenol red, reference compound]
- inhibition at 50 µM ([11]; positive control 50 μM, read-out: Aβ fibrilization inhibition (ThT)): 60.3 ± 4.29%

Compound: O=c1c(O)c(-c2ccc(O)c(O)c2)oc2cc(O)cc(O)c12 [quercetin]
- ABTS radical scavenging activity [14]: 97.55 ± 0.05%
